How the values were obtained:
TDP-43 = conditions: 0.05 μM MT; SH-SY5Y cells; Yamashita et al 2009; cited from earlier work
[1] = system: huntingtin derivative containing a polyglutamine stretch of 102 residues; conditions: tested at 0, 10 and 100 μM; zebrafish; van Bebber et al. 2010; cited from earlier work
[2] = Baddeley et al., 2015, cited from earlier work
[3] = 4 mg twice weekly; prior-filed PCT/EP2023/064369; cited from earlier work
[4] = format: in vivo, human; conditions: 4 mg MTC approximately twice weekly; MCI to moderate AD
Protocol: Prior-filed PCT/EP2023/064369 (Example 3) describes the structure of a phase 3 clinical trial in mild to moderate AD in which different arms of participants were treated with MTC and LMTM respectively. This was a Phase 3, randomized, double-blind, outpatient trial to evaluate the safety, efficacy, and tolerability of LMTM in participants with severity ranging from mild cognitive impairment (MCI) to moderate AD. The MTC minipill was intended as a urinary discolourant placebo (in combination with a true placebo i.e. a blank minipill lacking any MTC or LMTM). […] Of patients receiving MTC 4 mg twice weekly, the majority (85%) were unexpectedly found to have blood levels of active drug above the threshold needed to produce a clinical effect.

For `CN(C)c1ccc2nc3ccc(N(C)C)cc3[s+]c2c1` [MT, N3,N3,N7,N7-tetramethylphenothiazin-5-ium-3,7-diamine], the “reduction of the number of TDP-43 aggregates” value (TDP-43) is given as 50% and the “formation of huntingtin polyglutamine aggregates” value [1] is given as “prevented the formation of such aggregates in zebrafish in a dose dependent manner”.

For `CN(C)c1ccc2c(c1)Sc1cc(N(C)C)ccc1N2` [LMTM, leuco-methylthioninium bis(hydromethanesulfonate)], the “pharmaceutic properties (solubility and pKa)” value [2] is given as “superior pharmaceutic properties in terms of solubility and pKa” and the absorption limitations ([2]; compared with the MT+ form) is given as “not subject to the absorption limitations of the MT^+ form”.

For `CN(C)c1ccc2nc3ccc(N(C)C)cc3[s+]c2c1` [MTC, 3,7-bisdimethylaminophenazothionium chloride], the “therapeutic benefits in treating Alzheimer's disease” value [3] is given as “showed therapeutic benefits” and the clinical benefit [4] is given as “showed clinical benefit”.
